Test results from patent US10005793B2, “Bodipy dyes for biological imaging” (The General Hospital Corporation, priority 2012, dated 2018).

Legend:
[1] = system: MDA-MB-231 pLVX H2B-mCherry cells; experiment: Live cell fluorescence imaging after 24 hours treatment; type: cell-based; details: 24 hours at 10 μM, 1 μM, and 100 nM; FIG. 5
Procedure: To investigate the impact of dye lipophilicity in the in vivo imaging context, we further treated MD-MBA 231 cells (with an H2B mCherry fluorescent reporter to localize the nucleus) with each compound for 24 hours at 10 μM, 1 μM, and 100 nM. Cells (MDA-MB-231 pLVX H2B-mCherry) lines were cultured using sterile technique in plastic dishes with standard cell-growth media [RPMI 1640 1× (+) phenol red, (+) 10% FBS, (+) 1% Pen-Strep]. Culture incubation during and in between experiments was performed in a sterile incubator (37° C., 5% CO2). All cultures used in imaging studies were confirmed to be mycoplasma-free prior to experimentation using a commercially available detection kit (MycoAlert, Lonza).
This property thereby limits non-specific staining effects that could have a confounding effect small-molecule imaging applications.

MD-MBA 231 cell line = experiment: Wash-out experiment, live-cell imaging; type: cell-based; details: 30 minutes incubation with 10 µM compound, three 30 minute washes; FIG. 6
Procedure: Further validation of the dyes' low-lipophilicity was achieved via a wash-out experiment with the MD-MBA 231 cell line. In this experiment, we investigated the ease of washing out the mono-alkoxy fluorophores within 30 minutes (e.g., within 15 minutes of the start of incubation).
Two days prior to imaging, cells were seeded at 20,000 cells/well on a 96-well Glass Bottom Microwell plate (MatriPlate, MGB096-1-2-LG-L) treated with 1× Attachment Factor (0.1% gelatin, Gibco). For these experiments, phenol-red free imaging media was used [RPMI 1640 1× (+) 10% FBS]. The day of imaging, each well was incubated for 30 minutes with […] of the title compound suspended in cell imaging media (final DMSO content=0.1%). Subsequently three washes were performed. Each wash consisted of removing spent media, adding fresh imaging media, and incubating the cells for 30 minutes. After the final wash, the media was aspirated, a thin layer of cell imaging media was added, and wells were rapidly imaged.
Live-cell imaging was performed on a Zeiss Axiovert 100M inverted epifluorescence microscope with a 40× objective. Per region of interest, a bright field view was acquired as well as GFP, TexasRed fluorescence channels.

| SMILES | staining pattern of live cells [1] | staining after wash-out (MD-MBA 231 cell line) |
| --- | --- | --- |
| CO[B-]1(F)n2c(C)cc(C)c2C(C)=C2C(C)=CC(C)=[N+]21 (stereo not shown) [AMC1028, 5-fluoro-5-methoxy-1,3,7,9,10-pentamethyl-5H-dipyrrolo[1,2-c:2′,1′-f][1,3,2]diazaborinin-4-ium-5-uide] | diffuse fluorescent signal |  |
| CC1=CC(C)=[N+]2C1=C(C)c1c(C)cc(C)n1[B-]2(F)OCCO (stereo not shown) [AMC1029, 5-fluoro-5-(2-hydroxyethoxy)-1,3,7,9,10-pentamethyl-5H-dipyrrolo[1,2-c:2′,1′-f][1,3,2]diazaborinin-4-ium-5-uide] | diffuse fluorescent signal |  |
| CC1=CC(C)=[N+]2C1=C(C)c1c(C)cc(C)n1[B-]2(F)F [AMC1094, 1,3,5,7,8-Pentamethyl BODIPY] | significant non-specific staining of cellular compartments | persistent non-specific staining |
